Experimental findings from ChEMBL document CHEMBL4304837, “Discovery of Pyridazinone and Pyrazolo[1,5-a]pyridine Inhibitors of C-Terminal Src Kinase” (ACS Med Chem Lett, 2019) are described below.

In data set [1] the target is T1, Tyrosine-protein kinase ZAP-70 (Homo sapiens) (UniProt P43403).
T1 sequence (whole entry): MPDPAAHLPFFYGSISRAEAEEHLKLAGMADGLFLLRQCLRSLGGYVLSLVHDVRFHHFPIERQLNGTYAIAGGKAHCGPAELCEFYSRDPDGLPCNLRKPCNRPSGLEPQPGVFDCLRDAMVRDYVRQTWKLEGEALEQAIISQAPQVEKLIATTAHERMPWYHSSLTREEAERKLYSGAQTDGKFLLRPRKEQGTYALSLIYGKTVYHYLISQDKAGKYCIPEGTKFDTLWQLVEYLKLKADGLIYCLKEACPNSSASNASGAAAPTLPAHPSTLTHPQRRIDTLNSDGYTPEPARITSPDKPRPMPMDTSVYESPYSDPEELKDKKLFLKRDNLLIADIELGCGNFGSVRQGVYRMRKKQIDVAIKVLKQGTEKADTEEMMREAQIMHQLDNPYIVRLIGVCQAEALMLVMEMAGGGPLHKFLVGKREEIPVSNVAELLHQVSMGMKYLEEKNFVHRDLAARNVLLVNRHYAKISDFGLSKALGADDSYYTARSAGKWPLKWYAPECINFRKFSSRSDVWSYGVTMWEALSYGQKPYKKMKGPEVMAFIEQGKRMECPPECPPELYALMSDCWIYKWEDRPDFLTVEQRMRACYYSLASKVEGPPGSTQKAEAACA
Kind of data set: Effect on ZAP70 phosphorylation in human Jurkat cells pre-incubated for 30 mins followed by anti-CD3/CD28 stimulation measured after 10 mins relative to control. The format is cell-based.

Data set [2] is described as follows: Metabolic stability in human liver microsomes assessed as compound remaining at 0.5 uM measured after 10 mins in presence of NADPH by LC-MS/MS analysis. The note with it: read-out: Stability. The format is ADME, Microsome. (In general: Liver microsomes are a subcellular fraction often used to study metabolism.)
Data set [3] can be described thus: Metabolic stability in mouse liver microsomes assessed as compound remaining at 0.5 uM measured after 10 mins in presence of NADPH by LC-MS/MS analysis. The format is ADME, Microsome. The note with it: read-out: Stability.
The nature of data set [4]: Half life in human liver microsomes at 0.5 uM measured up to 45 mins by LC-MS/MS analysis. The format is ADME, Microsome.
Data set [5] in a line: Half life in mouse liver microsomes at 0.5 uM measured up to 45 mins by LC-MS/MS analysis. The format is ADME, Microsome.
Data set [6] can be described thus: Protein binding in human serum assessed as unbound fraction measured up to 5 hrs by LC-MS/MS analysis relative to control. The format is ADME, cell-free.
Data set [7] can be described thus: Protein binding in mouse serum assessed as unbound fraction measured up to 5 hrs by LC-MS/MS analysis relative to control. The format is ADME, cell-free.
A short description of data set [8]: Cmax in C57BL/6 mouse at 100 mg/kg, po. The format is ADME, organism-based. Details: dose 100 mg/kg, route oral. To be noted: in vivo.
The nature of data set [9]: Tmax in C57BL/6 mouse at 100 mg/kg, po. The format is ADME, organism-based. The note with it: in vivo.
A short description of data set [10]: AUC in C57BL/6 mouse at 100 mg/kg, po. The format is ADME, organism-based. The note with it: in vivo.
The species named for data set [11] is Homo sapiens. Description: Immunostimulatory activity in human CD4-positive T cells assessed as increase in OKT-induced IL-2 secretion pre incubated for 15 mins followed by co-culture with CHO cells over-expressing OKT and measured after 48 hrs by AlphaLisa assay. The format is functional, cell-based.
The species entered for data set [12] is Homo sapiens. Kind of data set: Immunostimulatory activity in human CD4-positive T cells assessed as increase in OKT-induced increase in CD4-positive T cells proliferation pre incubated for 15 mins followed by co-culture with CHO cells over-expressing OKT and measured after 72 hrs by MTS assay. The format is functional, cell-based. (Formazan colour is commonly taken as a measure of viable cells.)

Data set [13] is described as follows: Drug concentration in C57BL/6 mouse at 100 mg/kg, po after 24 hrs. To be noted: in vivo, read-out: Ct. The format is ADME, organism-based.
Data set [14] is described as follows: Half life in C57BL/6 mouse at 100 mg/kg, po. The format is ADME, organism-based. To be noted: in vivo.
Data set [15] in a line: Effect on human CD4-positive T cell activation assessed as increase in IL-2 secretion preincubated for 15 mins followed by co-culture with CHO cells and measured after 48 hrs by AlphaLisa assay. A general note: In Alpha technology, singlet oxygen from a donor bead excites a nearby acceptor bead.
The nature of data set [16]: Effect on human CD4-positive T cell activation assessed as increase in increase in CD4-positive T cells proliferation preincubated for 15 mins followed by co-culture with CHO cells and measured after 48 hrs by AlphaLisa assay. The format is cell-based.
The target of data set [17] is Tyrosine-protein kinase Lck (Homo sapiens, UniProt P06239). Kind of data set: Inhibition of His-tagged/GST-tagged LCK (unknown origin) incubated for 1 hr by TR-FRET assay.
Data set [18] is described as follows: Drug metabolism in mouse liver microsomes assessed as oxidation at […] group by soft spot analysis. The format is ADME, Microsome.
A short description of data set [19]: Plasma concentration in C57BL/6 mouse at 100 mg/kg, po. The format is ADME, organism-based. To be noted: in vivo.
A short description of data set [20]: Drug metabolism in mouse liver microsomes assessed as oxidation at indazole ring by soft spot analysis. The format is ADME, Microsome.

Tyrosine-protein kinase Lck, sequence (P06239 whole entry): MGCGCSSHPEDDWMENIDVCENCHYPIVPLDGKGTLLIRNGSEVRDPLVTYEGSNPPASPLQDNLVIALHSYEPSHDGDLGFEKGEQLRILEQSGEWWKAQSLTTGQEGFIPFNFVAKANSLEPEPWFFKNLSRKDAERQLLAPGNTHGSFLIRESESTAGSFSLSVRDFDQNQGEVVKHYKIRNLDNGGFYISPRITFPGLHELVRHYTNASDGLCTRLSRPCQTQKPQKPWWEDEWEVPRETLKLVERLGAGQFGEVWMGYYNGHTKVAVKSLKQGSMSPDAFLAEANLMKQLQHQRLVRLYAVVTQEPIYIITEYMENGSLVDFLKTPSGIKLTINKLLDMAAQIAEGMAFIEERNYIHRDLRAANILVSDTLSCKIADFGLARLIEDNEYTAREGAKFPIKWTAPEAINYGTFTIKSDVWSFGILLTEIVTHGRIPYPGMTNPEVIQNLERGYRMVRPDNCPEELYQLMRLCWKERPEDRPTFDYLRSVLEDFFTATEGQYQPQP

Compound `CC(C)(C)NC(=O)N1CCC(n2nc(C(=O)Nc3ccc(NC(=O)c4cnn5ccccc45)cc3)c3ccccc32)CC1` displayed an Emax in data set [1] of 240%. The remaining at 10 min, 0.5 µM in data set [2] is 71%; in data set [3] it was 21%.

`CC(C)(C)NC(=O)N1CCC(n2nc(C(=O)Nc3ccc(-c4ccc(=O)[nH]n4)c(Cl)c3)c3ccccc32)CC1`: in data set [1], the Emax turned out to be 180%. Moreover, the remaining at 10 min, 0.5 µM in data set [2] came out at 65%; in data set [3] it was 15%.

In the case of `Cc1cc(=O)[nH]nc1-c1ccc(NC(=O)c2nn(C3CCN(C(=O)NC(C)(C)C)CC3)c3ccccc23)cc1Cl`, in data set [1], the Emax worked out at 350%. In addition, the remaining at 10 min, 0.5 µM in data set [2] turned out to be 68%; in data set [3], 9%.

In the case of `CCc1cc(NC(=O)c2nn(C3CCN(C(=O)NC(C)(C)C)CC3)c3ccccc23)ccc1-c1n[nH]c(=O)c(C)c1C`, the Emax in data set [1] is 270%. The remaining at 10 min, 0.5 µM in data set [2] turned out to be 61%; in data set [3], 59%. Besides, the half-life at 0.5 µM in [4] is 14 min; in data set [5], 12 min. For the same compound, the Fu in [6] is on record as 0.5%; in data set [7], 1%.

In turn, `COc1ccc2c(C(=O)Nc3ccc(NC(=O)c4nn(C5CCN(C(=O)CC(C)(C)C#N)CC5)c5ccc(F)cc45)cc3Cl)cnn2c1` yielded an Emax in data set [1] of 360%. Besides, the results for the remaining at 10 min, 0.5 µM in data set [2] and in data set [3] were 91% and 100%, respectively. Moreover, the half-life at 0.5 µM in [4] and in [5] was above 120 min throughout. Also, the values for the Fu in data set [6] and in data set [7] were below 0.1% and 0.3%, respectively. This compound returned a Cmax in data set [8] of 19.3 µM. Also, in data set [9], the Tmax was 7 h. Besides, in data set [10], the AUC was determined as 222 µM·h. Also, the Activity result was “Dose-dependent effect” in the data set listed under Homo sapiens [11], “Dose-dependent effect” in the data set filed under Homo sapiens [12], “Non-Toxic” in data set [15] and “Non-Toxic” in data set [16]. Besides, the concentration at 24 h in data set [13] came to 1300 nM. Moreover, the half-life in [14] is 318 min.

In data set [17], `CC(C)(C)NC(=O)N1CC(Cn2nc(C(=O)Nc3ccc(-c4ccc(=O)[nH]n4)c(Cl)c3)c3ccccc32)C1` gave an IC50 above 50 µM. The compound also came in with an Emax in [1] of 73%. The remaining at 10 min, 0.5 µM in data set [2] came out at 2%; in data set [3], 33%.

For `COc1ccc2c(C(=O)Nc3ccc(NC(=O)c4nn(C)c5ccccc45)cc3C)cnn2c1`, the remaining at 10 min, 0.5 µM in [3] turned out to be 59%.

`CCc1cc(NC(=O)c2nn(C3CCN(C(=O)NC(C)(C)C)CC3)c3ccccc23)ccc1-c1cc(C)c(=O)[nH]n1`: the Emax in data set [1] was 280%. The results for the remaining at 10 min, 0.5 µM in data set [2] and in [3] were 72% and 1%, respectively.

The compound `Cc1cc(NC(=O)c2nn(C3CCN(C(=O)CC(C)(C)C#N)CC3)c3ccccc23)ccc1NC(=O)c1cnn2ccccc12` showed an Emax in [1] of 370%. Further, the remaining at 10 min, 0.5 µM was 85% in data set [2] and 9% in data set [3]. Further, the Drug metabolism result in data set [18] is given as “Metabolite_Detected”.

Compound `COc1ccc2c(C(=O)Nc3ccc(NC(=O)c4nn(C5CCN(C(=O)NC(C)(C)C)CC5)c5ccc(F)cc45)cc3Cl)cnn2c1` gave an Emax in data set [1] of 210%. Moreover, the results for the remaining at 10 min, 0.5 µM in data set [2] and in data set [3] were 85% and 99%, respectively. The values for the half-life at 0.5 µM in data set [4] and in data set [5] were above 120 min and 88 min, respectively. For the same compound, the Fu in data set [6] is on record as 0.4%; in data set [7], below 0.2%.

Regarding `COc1ccc2c(C(=O)Nc3ccc(NC(=O)c4nn(C5CCN(C(=O)NC(C)(C)C)CC5)c5ccccc45)cc3C)cnn2c1`, in data set [1], the Emax was determined as 220%. Moreover, the remaining at 10 min, 0.5 µM in data set [2] came out at 80%; in [3], 2%.

Compound `CCc1cc(NC(=O)c2nn(C3CCN(C(=O)NC(C)(C)C)CC3)c3ccccc23)ccc1-c1n[nH]c(=O)cc1C` returned a maximum response (Emax) in data set [1] of 350%. The results for the remaining at 10 min, 0.5 µM in [2] and in [3] were 53% and 78%, respectively. Also, the half-life at 0.5 µM in data set [4] stood at 10 min; in data set [5], 31 min. The Fu in data set [6] came to 0.4%; in data set [7] it was 0.9%. This compound also showed a Cmax in [8] of 17.3 µM. For the same compound, the Tmax in data set [9] worked out at 0.3 h. The same compound had an AUC in data set [10] of 51.5 µM·h. This compound also returned a concentration in [19] of 8.7 µM. Further, in data set [13], the concentration at 24 h is 1 nM. For the same compound, the half-life in [14] is 114 min.

Take `Cc1cc(NC(=O)c2nn(C3CCN(C(=O)NC(C)(C)C)CC3)c3ccccc23)ccc1NC(=O)c1cnn2ccccc12`: in [1], the Emax came out at 190%. Further, the remaining at 10 min, 0.5 µM was 72% in data set [2] and 10% in [3]. In addition, the Drug metabolism entry in data set [20] is listed as “Metabolite_Detected”.

In the case of `CC(C)(C)NC(=O)N1CCC(n2nc(C(=O)Nc3ccc(NC(=O)c4cnn5ccccc45)c(Cl)c3)c3ccccc32)CC1`, in data set [1], the Emax amounted to 250%. Moreover, the remaining at 10 min, 0.5 µM in data set [2] came to 84%; in data set [3], 24%.

As a reminder, the Emax is the maximal effect, on the per cent scale that the assay sets. The half-life is how long it takes for the measured level to halve. Read a low half-life as fast loss. As a reminder, the Cmax is the highest concentration seen after dosing. The Tmax is the time from dosing to the highest level. As a reminder, the AUC is concentration integrated over time. What is called IC50 is the concentration at which inhibition is half-maximal. High values mean lower potency, low ones higher potency.
